Experimental data reported in patent US7122576B2, “Carbamate compounds for use in preventing or treating bipolar disorder” (priority 2001, dated 2006).

Tested on: hippocampal kindled rats
Assay: Hippocampal kindled rat model
Assay type: in vivo, Sprague-Dawley rats
Set-up: After-Discharge Threshold: unit not given here
Details: for Mean Seizure Score: seizure score scale 1-5
Procedure: Hippocampal Kindled Rat Model
In the hippocampal kindling model (Lothman E W, et al., Epilepsy Res., 1988, 2(6) 367–79), adult male Sprague-Dawley rats are surgically implanted with bipolar electrodes. Seizure score is assessed as follows: (1) mouth and facial movements; (2) above symptoms plus head nodding; (3) above symptoms plus forelimb clonus; (4) above symptoms plus rearing; and (5) above symptoms plus falling.

[1] = 50 mg/kg intraperitoneally, n=8
[2] = 100 mg/kg intraperitoneally, n=8
[3] = 200 mg/kg intraperitoneally, n=8
[4] = 300 mg/kg intraperitoneally, 0.25 hr after dose, n=2
[5] = 300 mg/kg intraperitoneally, 1 hr after dose, n=2
[6] = 300 mg/kg intraperitoneally, 2 hr after dose, n=2
[7] = 300 mg/kg intraperitoneally, 4 hr after dose, n=2

NC(=O)OC[C@H](OC(N)=O)c1ccccc1Cl [enantiomer of Formula (Ib)]
toxicity of dose (50 mg/kg intraperitoneally): nontoxic | % Protected [1]: 12.50% | After-Discharge Duration [1]: 75.88 s | Mean Seizure Score [1]: 3.75 | effect on after-discharge threshold and duration (50 mg/kg intraperitoneally, n=8 per group, over approximately a 3 hour time period): time-dependent reduction in after-discharge threshold and duration | % Protected [2]: 33.33% | After-Discharge Duration [2]: 53.17 s | Mean Seizure Score [2]: 3 | % Protected [3]: 87.50% | After-Discharge Duration [3]: 42 s | Mean Seizure Score [3]: 1.63 | toxicity of dose (300 mg/kg intraperitoneally): nontoxic | After-Discharge Duration [4]: 44 s | After-Discharge Threshold [4]: 105 | Mean Seizure Score [4]: 2.5 | After-Discharge Duration [5]: 50 s | After-Discharge Threshold [5]: >200 | Mean Seizure Score [5]: 1.5 | After-Discharge Duration [6]: 53 s | After-Discharge Threshold [6]: >200 | Mean Seizure Score [6]: 1.5 | After-Discharge Duration [7]: 111 s | After-Discharge Threshold [7]: 200 | Mean Seizure Score [7]: 2.5 | effect against the expression of Stage 5 seizures (300 mg/kg intraperitoneally, n=2, over a 4 hour time period): effective | ED50 (Rattus norvegicus, ip, dose range 50 to 200 mg/kg, intraperitoneally, 95% confidence interval 67.9 to 189.8 mg/kg, read-out: calculated ED50 value for reduction of the seizure score from 5 to 3 or less): 112 mg/kg | anti-kindling effects (hippocampal-kindled rat model): potent anti-kindling effects
